Assay results reported in US6855513B1 (priority 1999, dated 2005).

How the values were obtained:
[1] = system: quorum sensing signaling (Las system), QSC102 lacZ; assay: Two-strain (PAO1 / QSC102) screening assay for quorum sensing inhibiting compounds; format: cell-based, Pseudomonas aeruginosa; conditions: PAO1 + QSC102 on LB agar with X-gal, visual
Method: In this example, the screening assay used two strains of P. aeruginosa: a wild type P. aeruginosa (PAO1) and QSC102, from Example 1 (see FIG. 8). This assay will detect inhibition of all aspects of quorum sensing signaling, e.g., signal generation and signal reception.
(§1) Microtiter plates are prepared by adding 200 μL Luria Broth (“LB”) agar, containing 0.008% 5-bromo-4-chloro-3-indolyl-β-D-galactose (X-gal) to each well. Overnight cultures of PAO1 and QSC102 are subcultured in LB to a starting absorbance at 600 nm (“A600”) of 0.05 and grown at 37° C to an A600 of 1.0. PAO1 is diluted 2.5×10^5-fold in LB and 5 μL of this is applied to the surface of the LB agar in each well. Plates are then dried in a laminar flow hood for 60 minutes. A tenfold dilution of QSC102 in LB is used to inoculate each well using a replicator. Plates are then sealed and incubated at 37° C for 40 hours. Growth and color development are evaluated visually and the data is recorded with a camera.
(§2) The test compound was present in a microtiter well and overlaid with LB agar and 5-bromo-4-chloro-3-indolyl-β-D-galactose (X-gal). Both strains were spotted on the agar in each well. […] Inhibition of signaling was evaluated qualitatively by the absence or weakening of the blue color development.

[2] = system: P. aeruginosa PAO1 and QSC102; assay: Bacterial growth in the PAO1 / QSC102 screening assay; format: cell-based, Pseudomonas aeruginosa; conditions: in the presence of test compound
Method: as §1, §2

[3] = target: T1, RhlI (Pseudomonas aeruginosa, UniProt P54291); conditions: substrate of RhlI; cited from earlier work
T1 construct: host or cells: LasI minus strain of P. aeruginosa (as described for the cited study, Parsek et al. 1999)
T1 sequence (P54291 whole entry): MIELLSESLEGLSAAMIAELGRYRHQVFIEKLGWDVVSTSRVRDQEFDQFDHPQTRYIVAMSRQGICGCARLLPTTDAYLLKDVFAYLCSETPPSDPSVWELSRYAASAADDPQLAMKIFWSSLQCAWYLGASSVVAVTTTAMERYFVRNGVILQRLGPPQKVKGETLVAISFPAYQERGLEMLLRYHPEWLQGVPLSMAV

Molecule | Concentration required to suppress color development completely [1] | Inhibition of signaling (blue color development) [1] | Bacterial growth [2] | Km [3] | vmax compared to C4-ACP [3]
CC(=O)C1CCOC1=O (stereo not drawn) [acetyl-butyrolactone] | ~20 mM | showed an inhibitory effect | not inhibited | – | –
CCCC(=O)SCCNC(=O)CCNC(=O)[C@H](O)C(C)(C)COP(=O)(O)OP(=O)(O)OC[C@H]1O[C@@H](n2cnc3c(N)ncnc32)[C@H](O)[C@@H]1OP(=O)(O)O [butanoyl-CoA] | – | – | – | 230 µM | one order of magnitude slower
O=C1CCCO1 [butyrolactone] | ~20 mM | showed an inhibitory effect | not inhibited | – | –
butanoyl-acyl carrier protein [C4-ACP] | – | – | – | 6 µM | –
